One assay relates to MOLT-4 cells. The experiment in a line: Cell viability assay, MTS, 48 h, MOLT-4. Particulars: 48 hours, read-out: IC50 (48 hours) MOLT-4. The format is cell-based. The method, then: (§1) Acute lymphoblastic leukemia cells (MOLT-4 and RS4; 11) or small cell lung cancer (NCI-H146 or simply H146) were incubated with increasing concentrations of Bcl-xL degraders for 48 h. Cell viability was measured by tetrazolium-based MTS assay.

Another assay has as its system RS4;11 cells. The experiment in a line: Cell viability assay, MTS, 48 h, RS4;11. It is filed as cell-based. The settings on record: 48 hours, read-out: IC50 (48 hours) RS4;11. As to the method: as §1

Like-named read-outs stand apart in the source and are kept apart here.

IC50 data for 13 compounds are collected here from patent US20220169628A1 (University of Florida Research Foundation, Incorporated, priority 2019, published 2022).

In general, IC50 refers to the concentration at which inhibition is half-maximal.

`Cc1ncsc1-c1ccc([C@H](C)NC(=O)[C@@H]2C[C@@H](O)CN2C(=O)[C@@H](NC(=O)CCCCCCC(=O)N2CCN(C[C@]3(C)CCC(c4ccc(Cl)cc4)=C(CN4CCN(c5ccc(C(=O)NS(=O)(=O)c6ccc(N[C@H](CCN7CCOCC7)CSc7ccccc7)c(S(=O)(=O)C(F)(F)F)c6)cc5)CC4)C3)CC2)C(C)(C)C)cc1` [degrader #44, (2S,4R)-1-((S)-2-(8-(4-(((R)-4′-chloro-4-methyl-6-((4-(4-(((4-(((R)-4-morpholino-1-(phenylthio)butan-2-yl)amino)-3-((trifluoromethyl)sulfonyl)phenyl)sulfonyl)carbamoyl)phenyl)piperazin-1-yl)methyl)-2,3,4,5-tetrahydro-[1,1′-biphenyl]-4-yl)methyl)piperazin-1-yl)-8-oxooctanamido)-3,3-dimethylbutanoyl)-4-hydroxy-N—((S)-1-(4-(4-methylthiazol-5-yl)phenyl)ethyl)pyrrolidine-2-carboxamide]: the IC50 is less than 50 nM with MOLT-4 cells (Homo sapiens, MOLT-4, 48 h) and less than 50 nM with RS4;11 cells (Homo sapiens, RS4-11, 48 h).

For `Cc1ncsc1-c1ccc([C@H](C)NC(=O)[C@@H]2C[C@@H](O)CN2C(=O)[C@@H](NC(=O)CCCCCCC(=O)N2C[C@@H]3C[C@H]2CN3CC2(C)CCC(c3ccc(Cl)cc3)=C(CN3CCN(c4ccc(C(=O)NS(=O)(=O)c5ccc(N[C@H](CCN6CCOCC6)CSc6ccccc6)c(S(=O)(=O)C(F)(F)F)c5)cc4)CC3)C2)C(C)(C)C)cc1` (some centres unmarked) [degrader #45], the IC50 in the assay on MOLT-4 cells (Homo sapiens, MOLT-4, 48 h) is 50 to 150 nM; in the assay with RS4;11 cells (Homo sapiens, RS4-11, 48 h), less than 50 nM.

Turning to `Cc1ncsc1-c1ccc([C@H](C)NC(=O)[C@@H]2C[C@@H](O)CN2C(=O)[C@@H](NC(=O)CCCCCC(=O)N[C@H]2CCCN(CC3(C)CCC(c4ccc(Cl)cc4)=C(CN4CCN(c5ccc(C(=O)NS(=O)(=O)c6ccc(N[C@H](CCN7CCOCC7)CSc7ccccc7)c(S(=O)(=O)C(F)(F)F)c6)cc5)CC4)C3)C2)C(C)(C)C)cc1` (stereo partly drawn) [degrader #46, N1-((3S)-1-((4′-chloro-4-methyl-6-((4-(4-(((4-(((R)-4-morpholino-1-(phenylthio)butan-2-yl)amino)-3-((trifluoromethyl)sulfonyl)phenyl)sulfonyl)carbamoyl)phenyl)piperazin-1-yl)methyl)-2,3,4,5-tetrahydro-[1,1′-biphenyl]-4-yl)methyl)piperidin-3-yl)-N7-((S)-1-((2S,4R)-4-hydroxy-2-(((S)-1-(4-(4-methylthiazol-5-yl)phenyl)ethyl)carbamoyl)pyrrolidin-1-yl)-3,3-dimethyl-1-oxobutan-2-yl)heptanediamide], the IC50 with MOLT-4 cells (Homo sapiens, MOLT-4, 48 h) was in the range of 150 to 500 nM; in the assay on RS4;11 cells (Homo sapiens, RS4-11, 48 h), 50 to 150 nM.

`Cc1ncsc1-c1ccc([C@H](C)NC(=O)[C@@H]2C[C@@H](O)CN2C(=O)[C@@H](NC(=O)CCCCCCC(=O)N[C@H]2CCCN(CC3(C)CCC(c4ccc(Cl)cc4)=C(CN4CCN(c5ccc(C(=O)NS(=O)(=O)c6ccc(N[C@H](CCN7CCOCC7)CSc7ccccc7)c(S(=O)(=O)C(F)(F)F)c6)cc5)CC4)C3)C2)C(C)(C)C)cc1` (stereo partly drawn) [degrader #47, N1-((3S)-1-((4′-chloro-4-methyl-6-((4-(4-(((4-(((R)-4-morpholino-1-(phenylthio)butan-2-yl)amino)-3-((trifluoromethyl)sulfonyl)phenyl)sulfonyl)carbamoyl)phenyl)piperazin-1-yl)methyl)-2,3,4,5-tetrahydro-[1,1′-biphenyl]-4-yl)methyl)piperidin-3-yl)-N8-((S)-1-((2S,4R)-4-hydroxy-2-(((S)-1-(4-(4-methylthiazol-5-yl)phenyl)ethyl)carbamoyl)pyrrolidin-1-yl)-3,3-dimethyl-1-oxobutan-2-yl)octanediamide]: the IC50 is 50 to 150 nM in the assay on MOLT-4 cells (Homo sapiens, MOLT-4, 48 h) and 50 to 150 nM in the assay on RS4;11 cells (Homo sapiens, RS4-11, 48 h).

In the case of `Cc1ncsc1-c1ccc([C@H](C)NC(=O)[C@@H]2C[C@@H](O)CN2C(=O)[C@@H](NC(=O)CCCCCCCC(=O)N[C@H]2CCCN(CC3(C)CCC(c4ccc(Cl)cc4)=C(CN4CCN(c5ccc(C(=O)NS(=O)(=O)c6ccc(N[C@H](CCN7CCOCC7)CSc7ccccc7)c(S(=O)(=O)C(F)(F)F)c6)cc5)CC4)C3)C2)C(C)(C)C)cc1` (stereo partly drawn) [degrader #48, N1-((3S)-1-((4′-chloro-4-methyl-6-((4-(4-(((4-(((R)-4-morpholino-1-(phenylthio)butan-2-yl)amino)-3-((trifluoromethyl)sulfonyl)phenyl)sulfonyl)carbamoyl)phenyl)piperazin-1-yl)methyl)-2,3,4,5-tetrahydro-[1,1′-biphenyl]-4-yl)methyl)piperidin-3-yl)-N9-((S)-1-((2S,4R)-4-hydroxy-2-(((S)-1-(4-(4-methylthiazol-5-yl)phenyl)ethyl)carbamoyl)pyrrolidin-1-yl)-3,3-dimethyl-1-oxobutan-2-yl)nonanediamide], the IC50 is 50 to 150 nM in the assay on MOLT-4 cells (Homo sapiens, MOLT-4, 48 h) and less than 50 nM with RS4;11 cells (Homo sapiens, RS4-11, 48 h).

On to “(2S,4R)-1-((S)-2-(4-(4-(4-chlorophenyl)-5-((4-(4-(((4-(((R)-4-morpholino-1-(phenylthio)butan-2-yl)amino)-3-((trifluoromethyl)sulfonyl)phenyl)sulfonyl)carbamoyl)phenyl)piperazin-1-yl)methyl)-3,6-dihydropyridin-1(2H)-yl)-4-oxobutanamido)-3,3-dimethylbutanoyl)-4-hydroxy-N—((S)-1-(4-(4-methylthiazol-5-yl)phenyl)ethyl)pyrrolidine-2-carboxamide [Example 1]”, for which the IC50 in the assay on MOLT-4 cells and in the assay on RS4;11 cells was 150 to 500 nM in each case.

Regarding “(2S,4R)-1-((S)-2-(7-(4-(4-chlorophenyl)-5-((4-(4-(((4-(((R)-4-morpholino-1-(phenylthio)butan-2-yl)amino)-3-((trifluoromethyl)sulfonyl)phenyl)sulfonyl)carbamoyl)phenyl)piperazin-1-yl)methyl)-3,6-dihydropyridin-1(2H)-yl)-7-oxoheptanamido)-3,3-dimethylbutanoyl)-4-hydroxy-N—((S)-1-(4-(4-methylthiazol-5-yl)phenyl)ethyl)pyrrolidine-2-carboxamide [Example 2]”, the IC50 with MOLT-4 cells and in the assay on RS4;11 cells was 150 to 500 nM in each case.

“(2S,4R)-1-((S)-2-(8-(4-(4-chlorophenyl)-5-((4-(4-(((4-(((R)-4-morpholino-1-(phenylthio)butan-2-yl)amino)-3-((trifluoromethyl)sulfonyl)phenyl)sulfonyl)carbamoyl)phenyl)piperazin-1-yl)methyl)-3,6-dihydropyridin-1(2H)-yl)-8-oxooctanamido)-3,3-dimethylbutanoyl)-4-hydroxy-N—((S)-1-(4-(4-methylthiazol-5-yl)phenyl)ethyl)pyrrolidine-2-carboxamide [Example 3]”: the IC50 lay in the range of 150 to 500 nM in the assay with MOLT-4 cells and 50 to 150 nM with RS4;11 cells.

As to “(2S,4R)-1-((S)-2-(9-(4-(4-chlorophenyl)-5-((4-(4-(((4-(((R)-4-morpholino-1-(phenylthio)butan-2-yl)amino)-3-((trifluoromethyl)sulfonyl)phenyl)sulfonyl)carbamoyl)phenyl)piperazin-1-yl)methyl)-3,6-dihydropyridin-1(2H)-yl)-9-oxononanamido)-3,3-dimethylbutanoyl)-4-hydroxy-N—((S)-1-(4-(4-methylthiazol-5-yl)phenyl)ethyl)pyrrolidine-2-carboxamide [Example 4]”, the IC50 with MOLT-4 cells is 50 to 150 nM; with RS4;11 cells, less than 50 nM.

With “(2S,4R)-1-((S)-2-(10-(4-(4-chlorophenyl)-5-((4-(4-(((4-(((R)-4-morpholino-1-(phenylthio)butan-2-yl)amino)-3-((trifluoromethyl)sulfonyl)phenyl)sulfonyl)carbamoyl)phenyl)piperazin-1-yl)methyl)-3,6-dihydropyridin-1(2H)-yl)-10-oxodecanamido)-3,3-dimethylbutanoyl)-4-hydroxy-N—((S)-1-(4-(4-methylthiazol-5-yl)phenyl)ethyl)pyrrolidine-2-carboxamide [Example 5]”, the IC50 in the assay with MOLT-4 cells and with RS4;11 cells was less than 50 nM in each case.

In the case of “(2S,4R)-1-((S)-2-(11-(4-(4-chlorophenyl)-5-((4-(4-(((4-(((R)-4-morpholino-1-(phenylthio)butan-2-yl)amino)-3-((trifluoromethyl)sulfonyl)phenyl)sulfonyl)carbamoyl)phenyl)piperazin-1-yl)methyl)-3,6-dihydropyridin-1(2H)-yl)-11-oxoundecanamido)-3,3-dimethylbutanoyl)-4-hydroxy-N—((S)-1-(4-(4-methylthiazol-5-yl)phenyl)ethyl)pyrrolidine-2-carboxamide [Example 6]”, the values for the IC50 in the assay on MOLT-4 cells and in the assay with RS4;11 cells were 50 to 150 nM and less than 50 nM, respectively.

Turning to “(2S,4R)-1-((S)-2-(12-(4-(4-chlorophenyl)-5-((4-(4-(((4-(((R)-4-morpholino-1-(phenylthio)butan-2-yl)amino)-3-((trifluoromethyl)sulfonyl)phenyl)sulfonyl)carbamoyl)phenyl)piperazin-1-yl)methyl)-3,6-dihydropyridin-1(2H)-yl)-12-oxododecanamido)-3,3-dimethylbutanoyl)-4-hydroxy-N—((S)-1-(4-(4-methylthiazol-5-yl)phenyl)ethyl)pyrrolidine-2-carboxamide [Example 7]”, the IC50 in the assay with MOLT-4 cells and in the assay on RS4;11 cells was 50 to 150 nM each time.

As to “(S)-13-((2S,4R)-4-hydroxy-2-(((S)-1-(4-(4-methylthiazol-5-yl)phenyl)ethyl)carbamoyl)pyrrolidine-1-carbonyl)-14,14-dimethyl-11-oxo-3,6,9-trioxa-12-azapentadecyl 4-(4-chlorophenyl)-5-((4-(4-(((4-(((R)-4-morpholino-1-(phenylthio)butan-2-yl)amino)-3-((trifluoromethyl)sulfonyl)phenyl)sulfonyl)carbamoyl)phenyl)piperazin-1-yl)methyl)-3,6-dihydropyridine-1(2H)-carboxylate [Example 8]”, the IC50 in the assay with MOLT-4 cells and in the assay with RS4;11 cells was 150 to 500 nM in each case.
